Source: ChEMBL document CHEMBL5325506, “Discovery of neo-Clerodane Diterpenoids from Ajuga campylantha as Neuroprotective Agents against Ferroptosis and Neuroinflammation” (J Nat Prod, 2023)
Active and inactive are the calls of the source. The rule behind the calls is not given here.

Key:
HT-22 [1] = assay: Cytotoxicity against mouse HT-22 cells assessed as reduction in cell viability at 30 uM incubated for 24 hrs by MTT assay; type: toxicity, cell-based; conditions: ht-22, 24 h
BV-2 [2] = assay: Anti-inflammatory activity in mouse BV-2 cells assessed as inhibition of LPS-induced NO accumulation measured after 24 hrs by Griess reagent-based analysis; type: functional, cell-based; conditions: BV-2, 24 h
HT-22 [3] = assay: Inhibition of RSL3-induced ferroptosis in mouse HT-22 cells assessed as increase in cell viability at 30 uM incubated for 24 hrs by MTT assay; type: functional, cell-based
[4] = Metal chelating activity assessed as Fe2+-compound complex formation at 50 mM in presence of FeSO4 by UV-Visible spectrophotometry
HT-22 [5] = assay: Reversal of RSL3-induced morphological changes in mouse HT-22 cells incubated for 24 hrs; type: functional, cell-based; conditions: dose 3-30 µM
HT-22 [6] = assay: Inhibition of RSL3-induced ferroptosis in mouse HT-22 cells assessed as increase in cell viability incubated for 24 hrs by MTT assay; type: functional, cell-based; conditions: HT-22, 24 h
HT-22 [7] = assay: Inhibition of RSL3-induced ferroptosis in mouse HT-22 cells assessed as reduction in lipid accumulation incubated for 4 hrs by BODIPY-C11 based flow cytometric analysis; type: functional, cell-based; conditions: dose 3-30 µM
HT-22 [8] = assay: Inhibition of RSL3-induced ferroptosis in mouse HT-22 cells assessed as reduction in cytosolic ROS accumulation incubated for 4 hrs by carboxy-H2DCFDA based flow cytometric analysis; type: functional, cell-based; conditions: dose 3-30 µM
HT-22 [9] = assay: Inhibition of RSL3-induced ferroptosis in mouse HT-22 cells assessed as downregulation of PTGS2 mRNA expression at 10 to 30 uM incubated for 4 hrs by qRT-PCR analysis; type: functional, cell-based; conditions: dose 10-30 µM
HT-22 [10] = assay: Inhibition of glutamate-induced ferroptosis in mouse HT-22 cells at 30 uM incubated for 24 hrs; type: functional, cell-based
HT-22 [11] = assay: Inhibition of STS-induced apoptosis in mouse HT-22 cells at 30 uM incubated for 24 hrs; type: functional, cell-based
HT-22 [12] = assay: Inhibition of H2O2-induced necrosis in mouse HT-22 cells at 30 uM incubated for 24 hrs; type: functional, cell-based
HT-22 [13] = assay: Inhibition of TNFalpha/AZD5582/Z-VAD-fmk induced necroptosis in mouse HT-22 cells at 30 uM incubated for 24 hrs; type: functional, cell-based
[14] = Antioxidant activity assessed as DPPH radical scavenging activity at 100 uM measured after 30 mins by microplate spectrophotometer analysis; type: functional
BV-2 [15] = assay: Cytotoxicity against mouse BV-2 cells assessed as reduction in cell viability at 10 to 30 uM incubated for 24 hrs by MTT assay; type: toxicity, cell-based; conditions: bv-2, 24 h, dose 10-30 µM

C=C1CCC[C@@H]2[C@@](C)(CC[C@]3(O)[C@@H](OCC)O[C@H](OCC)[C@H]3O)[C@H](C)C[C@H](O)[C@@]12C
Activity (HT-22 [1]): Non-Toxic

C=C1CCC[C@@H]2[C@@](C)(CCC3=C[C@H](OCC)OC3=O)[C@H](C)C[C@H](O)[C@@]12C
Activity (HT-22 [1]): Non-Toxic

C=C1CCC[C@@H]2[C@@](C)(CCC3=CC(OC)OC3=O)[C@H](C)C[C@H](O)[C@@]12C (stereo partly specified)
Activity (HT-22 [1]): Non-Toxic | IC50 (BV-2 [2]): 41 µM

C=C1CCC[C@@H]2[C@@](C)(CCc3ccoc3)[C@H](C)C[C@H](O)[C@@]12C
Activity (HT-22 [1]): Non-Toxic | inhibition (HT-22 [3]): Active

C[C@@H]1C[C@@H]2OC(=O)[C@@H]3CCC[C@H]([C@@]1(C)CCc1ccoc1)[C@@]23C
Activity (HT-22 [1]): Non-Toxic

C=C1CCC[C@@H]2[C@@](C)(CCC3=CC(O)OC3=O)[C@H](C)C[C@H](O)[C@@]12C (stereo partly specified)
Activity (HT-22 [1]): Non-Toxic

C=C1CCC[C@@H]2[C@@](C)(CC/C(=C/CO)CO)[C@H](C)C[C@H](O)[C@@]12C
Activity (HT-22 [1]): Non-Toxic

C=C1CCC[C@@H]2[C@@](C)(CCC3=CC(=O)OC3)[C@H](C)C[C@H](O)[C@@]12C
Activity (HT-22 [1]): Non-Toxic

C[C@@H]1C[C@H](O)[C@]2(C)[C@H](CCC[C@]2(O)CO)[C@@]1(C)CCc1ccoc1
Activity (HT-22 [1]): Non-Toxic | inhibition (HT-22 [3]): Active

C=C1CCC[C@@H]2[C@@](C)(CCC3=C[C@@H](OCC)OC3=O)[C@H](C)C[C@H](O)[C@@]12C
Activity (HT-22 [1]): Non-Toxic

C[C@@H]1C[C@H](O)[C@]2(C)[C@H](CCC[C@]23CO[C@@](C)(O)O3)[C@@]1(C)CCc1ccoc1
Activity [4]: inactive | Activity (HT-22 [1]): Non-Toxic | Activity (HT-22 [5]): Dose-Dependent Effect | EC50 (HT-22 [6]): 10 µM | inhibition (HT-22 [7]): Dose-Dependent Effect | inhibition (HT-22 [8]): Dose-Dependent Effect | inhibition (HT-22 [9]): Active | inhibition (HT-22 [10]): Active | inhibition (HT-22 [11]): inactive | inhibition (HT-22 [12]): inactive | inhibition (HT-22 [13]): inactive | Activity [14]: inactive

C=C1CCC[C@@H]2[C@@](C)(CCC3=C[C@@H](OCC)O[C@@H]3OCC)[C@H](C)C[C@H](O)[C@@]12C
Activity (HT-22 [1]): Non-Toxic

C=C1CCC[C@@H]2[C@@](C)(CCC3=CC(=O)OC3C)[C@H](C)C[C@H](O)[C@@]12C (stereo partly specified)
Activity (HT-22 [1]): Non-Toxic

CC(=O)N(O)CCCCCNC(=O)CCC(=O)N(O)CCCCCNC(=O)CCC(=O)N(O)CCCCCN
Activity [4]: Active

C[C@@H]1C[C@H](C)C2=C(CO)CCC[C@@H]2[C@@]1(C)CCc1ccoc1
Activity (HT-22 [1]): Non-Toxic | inhibition (HT-22 [3]): Active

CCO[C@@H]1C[C@@H]2C(C=O)=C(C)C[C@@H]2O1
Activity (HT-22 [1]): Non-Toxic

COC1C=C(CC[C@@]2(C)[C@H](C)C[C@H](O)[C@]3(COC(C)=O)[C@@H]2CCC[C@]32CO2)C(=O)O1 (stereo partly specified)
Activity (HT-22 [1]): Non-Toxic

CCOC(=O)CC(=O)OC[C@@]1(O)CCC[C@@H]2[C@@](C)(CCc3ccoc3)[C@H](C)C[C@H](O)[C@]21C
Activity (HT-22 [1]): Non-Toxic

CC(=O)OC[C@@]1(O)CCC[C@@H]2[C@@](C)(CCc3ccoc3)[C@H](C)C[C@H](O)[C@]21C
Activity (HT-22 [1]): Non-Toxic

Oc1ccc(/C=C/c2cc(O)cc(O)c2)cc1 [RESVERATROL]
IC50 (BV-2 [2]): 32 µM

C=C1CCC[C@@H]2[C@@](C)(CCC3=C[C@H](OCC)O[C@@H]3OCC)[C@H](C)C[C@H](O)[C@@]12C
Activity (HT-22 [1]): Non-Toxic

C=C1CCC[C@H]2[C@@]1(C)C(=O)C[C@@H](C)[C@]2(C)CCC1=CC(OC)OC1=O (stereo partly specified)
Activity (HT-22 [1]): Non-Toxic | IC50 (BV-2 [2]): 9.7 µM | Activity (BV-2 [15]): Non-Toxic

C[C@@H]1C[C@H](O)[C@]2(C)[C@H](CCC[C@@]2(O)CO)[C@@]1(C)CCc1ccoc1
Activity (HT-22 [1]): Non-Toxic | inhibition (HT-22 [3]): Active
